# Assays:
# [1] = test system: edema induced by dextran; assay: Anti-inflammatory activity, dextran-induced edema; format: in vivo, rat; details: po; 500 mg/kg p.o. rat; read-out: % inhibition of edema induced by dextran
# Description: (§1) Pharmacological tests were carried out to evaluate the acute toxicity, anti-inflammatory and capillary permeability action, antipyretic, analgesic and anti-spasmodic in vitro action.
# [2] = Antipyretic activity; format: in vivo, rat; details: for Antipyretic activity (potency in comparison with aspirin = 100): 400 mg/kg p.o. rat; for Antipyretic action (in words): rat, in vivo
# Description: as §1
# [3] = Analgesic activity, protection from writhing; format: in vivo, mouse; details: po; 500 mg/kg p.o. mouse; read-out: Analgesic activity, protection from writhing %
# Description: as §1
# [4] = in vivo; details: mouse, in vivo, po
# [5] = test system: capillary permeability; assay: Capillary permeability test; details: 500 mg/kg p.o. mouse
# Description: as §1
# [6] = test system: edema induced by formalin; assay: Anti-inflammatory activity, formalin-induced edema; format: in vivo, rat; details: po; 500 mg/kg p.o. rat; read-out: % inhibition of edema induced by formalin
# Description: as §1
# [7] = test system: spasm by histamine; assay: Antispasmodic activity in vitro, spasm by histamine
# Description: as §1
# [8] = test system: spasm by acetylcholine; assay: Antispasmodic activity in vitro, spasm by acetylcholine
# Description: as §1
# [9] = Analgesic activity, hot plate test; format: in vivo, mouse; details: po; 500 mg/kg p.o. mouse; hot plate test; read-out: Analgesic activity, increase of reaction time %
# Description: as §1
# [10] = test system: edema induced by carrageenan; assay: Anti-inflammatory activity, carrageenin-induced oedema; format: in vivo, rat; details: po; 500 mg/kg p.o. rat; read-out: % inhibition of edema induced by carrageenan
# Description: Beginning, therefore, with D-glucose, we have prepared 1,2:5,6-di-O-isopropylidene-α-D-glucofuranose (II): [drawing 2] as well as 1,2-O-isopropylidene-α-D-glucofuranose and 1,2-O-isopropylidene-3,5,6-tri-O-benzyl-α-D-glucofuranose (1; Glen W. L., Myers G. S., Grant G. A., J. Chem. Soc., 2568/1951; (2) Meyer A. S., Reichstein T., Helv. Chim. Acta, 29, 139/1946; (3) Huber G., Rossi A., Helv. Chim. Acta, 51, 1185/1968) and have compared these compounds with (I) for anti-inflammatory activity against carrageenin-induced oedema (500 mg/kg, p.o. in rats).
# [11] = test system: granuloma; assay: Granuloma cotton pellet test; details: Rattus norvegicus, po, read-out: % inhibition of granuloma
# Description: as §1
Structure (SMILES),inhibition in vivo at 500 mg/kg [1],Antipyretic activity (potency in comparison with aspirin = 100) [2],inhibition in vivo at 500 mg/kg [3],LD50 [4],"Capillary permeability, decrease % [5]",inhibition in vivo at 500 mg/kg [6],"Antispasmodic activity in vitro, ED50, inhib. of spasm by histamine [7]","Antispasmodic activity in vitro, ED50, inhib. of spasm by acetylcholine [8]",change in vivo at 500 mg/kg [9],inhibition in vivo at 500 mg/kg [10],Antipyretic action (in words) [2],inhibition in vivo at 200 mg/kg [11],Inhibition of spasms induced by histamine (in words) [7]
CCOC1C(C2COC(C)(C)O2)OC2OC(C)(C)OC21 (stereo not drawn) [IV],14%,31%,0%,2000 mg/kg,42%,33%,150 µg/mL,> 100 µg/mL,30%,37%,–,–,–
CCCCOC1C(C2COC(C)(C)O2)OC2OC(C)(C)OC21 (stereo not drawn) [VI],13%,51%,0%,3000 mg/kg,57%,24%,> 100 µg/mL,> 100 µg/mL,40%,33%,retained,–,–
CCCOC1C(C2COC(C)(C)O2)OC2OC(C)(C)OC21 (stereo not drawn) [V],0%,37%,20%,1000 mg/kg,53%,0%,> 100 µg/mL,> 100 µg/mL,10%,28%,–,–,–
"CC1(C)OCC(C2OC3OC(C)(C)OC3C2OCC(=O)O)O1 [XIII, 3-Carboxymethyl-1,2:5,6-di-O-isopropylidene-α-D-glucofuranose]",4%,5%,0%,> 4000 mg/kg,14%,18%,> 100 µg/mL,> 100 µg/mL,0%,10%,–,–,–
"CN(C)CCOC1C(C2COC(C)(C)O2)OC2OC(C)(C)OC21 [XIV, 3-(2-Dimethylaminoethyl)-1,2:5,6-di-O-isopropylidene-α-D-glucofuranose]",54%,43%,20%,1500 mg/kg,35%,28%,100 µg/mL,> 100 µg/mL,10%,62%,retained,0%,–
CC1(C)OCC(C2OC3OC(C)(C)OC3C2OCCN2CCCCC2)O1 (stereo not drawn) [XIX],56%,55%,–,> 1000 mg/kg,17%,28%,–,–,–,64%,retained,–,–
CCCN(CCC)CCOC1C(C2COC(C)(C)O2)OC2OC(C)(C)OC21 (stereo not drawn) [XVI],41%,29%,0%,750 mg/kg,–,24%,12 µg/mL,100 µg/mL,0%,23%,–,0%,inhibited spasms induced by histamine at relatively low concentrations
CC1(C)OCC(C2OC3OC(C)(C)OC3C2OCCN(Cc2ccccc2)Cc2ccccc2)O1 (stereo not drawn) [XXI],17%,25%,60%,> 2000 mg/kg,–,19%,–,–,0%,29%,–,–,–
